Measured values from publication PMC11558998, “Lipophilic bisphosphonates reduced cyst burden and ameliorated hyperactivity of mice chronically infected with Toxoplasma gondii” (mBio, 2024).

Legend:
[1] = test system: T. gondii RH strain (type I) tachyzoites; assay: In vitro growth inhibition of red fluorescent tachyzoites, RH strain; format: cell-based; settings: Toxoplasma gondii, tachyzoite growth
Description: (§1) Experiments with T. gondii tachyzoites were carried out with parasites expressing a td-Tomato RFP ([48], [49]). For drug testing and growth assays, parasites were purified by passing them through a 25-gauge needle, followed by filtration through a 5 µm filter. Human fibroblasts were cultured in 96-well black plates for 48 (hTERT) or 120 (HFF) hours prior to the addition of 4,000 (type I) or 8,000 (type II) fluorescent tachyzoites per well. Fluorescence values were measured for up to 7 days (type I) and 21 days (type II), and both excitation (544 nm) and emission (590 nm) were read from the bottom of the plates in a Molecular Devices plate reader ([36]). The EC50s were calculated using GraphPad Prism software.

[2] = test system: T. gondii Pru strain (type II) tachyzoites; assay: In vitro growth inhibition of red fluorescent tachyzoites, Pru strain; format: cell-based, Toxoplasma gondii; settings: tachyzoite growth
Description: as §1

[3] = test system: T. gondii Me49 strain (type II) tachyzoites; assay: In vitro growth inhibition of red fluorescent tachyzoites, Me49 strain; format: cell-based; settings: Toxoplasma gondii, tachyzoite growth
Description: as §1

T. gondii ATQ^R R4 = assay: In vitro growth inhibition, atovaquone resistant strain R4; format: cell-based; settings: Toxoplasma gondii, read-out: EC50 ATQ^R R4, atovaquone resistant strain R4
Description: as §1

T. gondii ATQ^R R5 = assay: In vitro growth inhibition, atovaquone resistant strain R5; format: cell-based; settings: Toxoplasma gondii, read-out: EC50 ATQ^R R5
Description: as §1

[4] = test system: Human Foreskin Fibroblasts (HFF); assay: Cytotoxicity on HFF cells (Alamar Blue); format: cell-based
Description: (§2) The cytotoxicity was tested using an Alamar Blue assay as described by Recher et al. ([49]).

C2C12 myoblasts = assay: Cytotoxicity on C2C12 myoblasts (Alamar Blue); format: cell-based
Description: as §2

[5] = test system: in vitro differentiated Me49 bradyzoites (cysts); assay: Vacuole size of in vitro differentiated Me49 cysts (DBA/SAG1 IFA); format: cell-based, Toxoplasma gondii; settings: positive control, concentration not stated in the sentence (Fig. 1C: 3x and 5x EC50)
Description: (§3) Type II Me49 or Pru was differentiated using compound 1 as previously described ([50]). Confluent HFF monolayers on glass coverslips (preincubated for 2 hours with 3 µM compound 1, as described previously) were infected with 5 × 10^3 tachyzoites of the ME49 or Pru (type 2) or EGS (type I/III) strain (no compound 1 for EGS). The cells were allowed to grow and differentiate in a 37°C incubator with ambient CO2 for 3 days (EGS was allowed to spontaneously differentiate for 4 days). […] After 7 days (Me49) or 8 days (EGS) of incubation, the cells were fixed with 3% paraformaldehyde for 10 minutes, permeabilized with 0.25% Triton X-100 for 10 minutes, and then blocked in 3% bovine serum albumin for 1 hour. The coverslips were then incubated in DBA rhodamine (for Me49)([51]) or DBA lectin (a kind gift from Diego Huet for EGS) and anti-SAG1 rat antibody (a kind gift from Vern Carruthers) for 2 hours. Then, the secondary anti-rat 488 was used to visualize the SAG1 antibody. The cells were then mounted onto microscope slides with fluoromount and DAPI (4′,6-diamidino-2-phenylindole). The slides were placed in the fridge for a minimum of 24 hours before imaging on a Delta Vision microscope. The vacuole sizes were calculated using ImageJ software.

[6] = test system: in vitro derived Pru cysts; assay: Vacuole size of in vitro derived Pru cysts; format: cell-based, Toxoplasma gondii
Description: as §3

[7] = test system: type I/III EGS strain cysts; assay: Vacuole size of spontaneously formed EGS cysts; format: cell-based, Toxoplasma gondii; settings: EGS spontaneous cysts, 3x EC50, 4 days
Description: as §3

[8] = test system: ex vivo bradyzoites of Me49-RFP from brains of chronically infected mice; assay: Ex vivo bradyzoite growth assay, Me49-RFP; format: cell-based, Toxoplasma gondii; settings: inhibitors present 14 days, 3x EC50
Description: (§4) Brains of chronically infected mice were collected, homogenized with seven strokes in a glass homogenizer, and then enumerated on a Delta Vision microscope [protocol adapted from reference ([45])]. Twenty-five cysts per plate were then placed in a tube for acid/pepsin (170 mM sodium chloride, 60 mM hydrochloric acid, and 0.1 mg/mL pepsin) treatment for 10 minutes in a 37°C water bath. The cysts were then neutralized with 94 mM Na2CO3. The liberated bradyzoites were then equally distributed into a 12-well plate. For the growth assay, the cells were grown in the presence of compounds or DMSO for 12 and 14 days undisturbed. For the viability assays, the cells were treated with compounds or DMSO for 4 hours before being washed with 1× PBS and then grown for 12 and 14 days in media without compounds. After 12 and 14 days, the cells were fixed with 100% ethanol and stained with 2.5× crystal violet. The control DMSO plaque image is duplicated from Fig. 2B to be used as the representative image of plaques in Fig. 2A. Plaques were quantified on a light microscope using the 4× objective and the size of the plaques was measured using Fiji (ImageJ) software.

[9] = test system: ex vivo bradyzoites of Me49-RFP from brains of chronically infected mice; assay: Ex vivo bradyzoite viability assay, Me49-RFP; format: cell-based, Toxoplasma gondii; settings: inhibitors 4 hours then drug-free 14 days, 3x EC50
Description: as §4

[10] = test system: ex vivo bradyzoites of the Pru strain from chronically infected mice; assay: Ex vivo bradyzoite growth assay, Pru; format: cell-based, Toxoplasma gondii; settings: 3x EC50
Description: as §4

[11] = test system: ex vivo bradyzoites of the Pru strain from chronically infected mice; assay: Ex vivo bradyzoite viability assay, Pru; format: cell-based, Toxoplasma gondii; settings: 3x EC50
Description: as §4

[12] = test system: Me49-RFP brain tissue cysts in CBA/j mice; format: in vivo, Toxoplasma gondii; settings: 500 Me49-RFP i.p., 5 mg/kg/day i.p. for 16 days from 28 dpi, brains 2 weeks after treatment
Description: CBA/j female mice (Jackson Laboratory) were injected i.p. with a 200 µL suspension of 500 tachyzoites of the Me49-RFP strain T. gondii (type II genotype). […] At 4 weeks post-infection, the brains of two mice were collected to check for the presence of cysts and to confirm that the mice were in the chronic stage. At this time, the remaining mice were injected i.p. daily for 16 consecutive days with 200 µL solvent (10% Kolliphor HS-15) or compounds dissolved in 10% HS-15. […] Mice were euthanized humanely 2 weeks after the final injection. The mouse brains were collected in 1 mL sterile PBS, minced with scissors, and homogenized using a glass homogenizer. Four 20 µL samples (80 µL total or 8% of sample) of each brain homogenate were placed on a glass microscope slide. Cysts were enumerated using a Delta Vision fluorescence microscope.

[13] = test system: Me49-RFP brain tissue cysts in Swiss Webster mice; assay: Treatment of Swiss Webster mice chronically infected with Me49-RFP; format: in vivo, Toxoplasma gondii; settings: Swiss Webster mice, 5,000 Me49-RFP i.p.
[14] = test system: toxoplasmosis relapse in patients; settings: after 6 years of therapy; cited from earlier work
[15] = test system: Pru-GFP brain tissue cysts in Balb/c mice; assay: Treatment of Balb/c mice chronically infected with Pru-GFP; settings: Balb/c mice, 1,500 Pru-GFP i.p., 5 mg/kg/day i.p. for 16 days from 28 dpi
Description: BALB/c male mice (Jackson Laboratory) were injected i.p. with a 200 µL suspension of 1,500 tachyzoites of the Pru-GFP strain T. gondii (type II genotype) (a gift from Laura Knoll). […] At 4 weeks post-infection, the brains of two mice were collected to check for the presence of cysts and to confirm that the mice were in the chronic stage. At this time, the remaining mice were injected i.p. daily for 16 consecutive days with 200 µL solvent (10% Kolliphor HS-15) or compounds dissolved in 10% HS-15. […] Mice were euthanized humanely 2 weeks after the final injection. The mouse brains were collected in 1 mL sterile PBS, minced with scissors, and homogenized using a glass homogenizer. Four 20 µL samples (80 µL total or 8% of sample) of each brain homogenate were placed on a glass microscope slide. Cysts were enumerated using a Delta Vision fluorescence microscope.

[16] = test system: hyperactivity of Balb/c mice chronically infected with Pru-GFP; assay: CageDot continuous monitoring of mouse activity during chronic infection; settings: 5 mg/kg/day i.p. 16 days, 15 dpt and 2 wpt
Description: At this time, the remaining mice were injected i.p. daily for 16 consecutive days with 200 µL solvent (10% Kolliphor HS-15) or compounds dissolved in 10% HS-15. […] Mice were euthanized humanely 2 weeks after the final injection.
Mice were monitored during the infection using the CageDot ([30], [31]), which detects vibrations. […] Data are collected at a 100 Hz sampling rate (each second, 100 data points were collected).

T. gondii tachyzoites = assay: EC50 against tachyzoites indicated in Fig. 1E, used to set 3x and 5x concentrations; settings: Toxoplasma gondii, read-out: indicated EC50 (shown in parentheses, Fig. 1E)

For CCc1nc(N)nc(N)c1-c1ccc(Cl)cc1 [Pyrimethamine], the EC50 [1] was 383 ± 78 nM, the EC50 ([2]; Toxoplasma gondii) was 43.2 ± 2.58 nM and the EC50 [3] was 1.67 ± 0.268 nM. For the same compound, the EC50 (T. gondii ATQ^R R4) was 22.1 ± 3.52 nM, the EC50 (T. gondii ATQ^R R5) was 5.23 ± 0.221 nM and the “% Inhibition on HFF” value ([4]; 4X EC50) was 0.38 ± 2.61%. For the same compound, the “% Inhibition on HFF” value ([4]; 10X EC50) was 6.18 ± 0.98%, the “% Inhibition on C2C12” value (C2C12 myoblasts; 4X EC50) was 2.39 ± 3.50% and the “% Inhibition on C2C12” value (C2C12 myoblasts; 10X EC50) was 6.57 ± 1.31%.

With O=C1C(O)=C([C@H]2CC[C@H](c3ccc(Cl)cc3)CC2)C(=O)c2ccccc21 [Atovaquone] the EC50 [2] was 4.17 ± 2.34 nM, the EC50 [3] was 1.53 ± 0.229 nM and the EC50 (T. gondii ATQ^R R4) was 1900 nM. For the same compound, the EC50 (T. gondii ATQ^R R5) was 1030 ± 290 nM, the vacuole size [5] was “reduced vacuole size” and the vacuole size [6] was “decreased the vacuole size”. For the same compound, the “size of the vacuoles (cysts)” value [7] was “reduced the size of the vacuoles”, the “number of plaques, ex vivo growth” value [8] was “effective against bradyzoite growth” and the “number of plaques, ex vivo viability” value [9] was “only a minimal impact on viability”. The “number of plaques, ex vivo growth” value [10] was “significant reduction in the number of plaques”, the “number of plaques, ex vivo viability” value [11] was “significant reduction in the number of plaques” and the “reduction in the number of cysts compared to the control” value [12] was 56.6%. The “reduction of cyst burden” value ([13]; ATQ at 5 mg/kg daily for 16 days) was 65.5%, the cyst size ([13]; daily treatment 16 days) was “reduced the size of the cysts” and the “% Inhibition on HFF” value ([4]; 4X EC50) was 4.69 ± 2.56%. For the same compound, the “% Inhibition on HFF” value ([4]; 10X EC50) was 7.23 ± 2.29%, the “% Inhibition on C2C12” value (C2C12 myoblasts; 4X EC50) was 2.61 ± 4.48% and the “% Inhibition on C2C12” value (C2C12 myoblasts; 10X EC50) was 6.84 ± 5.34%. The patients experiencing relapse [14] was “up to 75%”, the “reduction of cyst burden” value [15] was 71.9% and the “activity of infected mice (nightly average energy, CageDot)” value [16] was “decreased the activity of the infected mice to similar levels of the control uninfected mice”. It also gave an EC50 (T. gondii tachyzoites) of 10 nM.
